Laboratory results taken from PubChem BioAssay (NCI).
Several values for one entry are separate records, joined by “and”; a condition that tells them apart may be missing. Equal entries are not always repeated.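 Tested at 5 concentrations; 48 h exposure; 96-well plates; endpoints linearly interpolated, else capped at highest concentration. GI50 marks 50% less growth. TGI marks complete inhibition of growth.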

Experiments:
Test in all cases: NCI-60 cell line screen, 48 h
A549 NSCLC = tested on: A549 NSCLC
HOP-92 NSCLC = tested on: HOP-92 NSCLC
HS 578T breast = tested on: HS 578T breast
M14 melanoma = tested on: M14 melanoma
OVCAR-5 ovarian = tested on: OVCAR-5 ovarian
SK-OV-3 ovarian = tested on: SK-OV-3 ovarian
SN12C renal = tested on: SN12C renal
SNB-75 CNS = tested on: SNB-75 CNS
MOLT-4 leukemia = tested on: MOLT-4 leukemia
SF-295 CNS = tested on: SF-295 CNS

SMILES | GI50 (A549 NSCLC) | TGI (A549 NSCLC) | GI50 (HOP-92 NSCLC) | TGI (HOP-92 NSCLC) | GI50 (HS 578T breast) | TGI (HS 578T breast) | GI50 (M14 melanoma) | TGI (M14 melanoma) [µM] | GI50 (OVCAR-5 ovarian) | TGI (OVCAR-5 ovarian) | GI50 (SK-OV-3 ovarian) | TGI (SK-OV-3 ovarian) | GI50 (SN12C renal) | TGI (SN12C renal) | GI50 (SNB-75 CNS) [µM] | TGI (SNB-75 CNS) [µM] | TGI (MOLT-4 leukemia) [µM] | TGI (SF-295 CNS) | GI50 (MOLT-4 leukemia) | GI50 (SF-295 CNS)
CCC(C)[C@H]1O[C@]2(C=C[C@@H]1C)C[C@@H]1C[C@@H](C/C=C(\C)[C@@H](OC3C[C@H](OC)C(O[C@H]4C[C@H](OC)[C@@H](O)[C@H](C)O4)[C@H](C)O3)[C@@H](C)/C=C/C=C3\CO[C@@H]4[C@H](O)C(C)=C[C@@H](C(=O)O1)[C@]34O)O2 (some centres undefined) | 1.22 µM | 7.04 µM | 0.65 µM | 1.41 µM | 1.02 µM | 2.87 µM | 1.04 µM | 2.33 | 2.06 µM | 7.86 µM | 2.17 µM | 8.23 µM | 1.65 µM | 6.95 µM | 2.74 | 9.09 |  |  |  | 
COc1cc2ccccc2oc1=O |  | > 100 µM |  | > 100 µM |  | > 100 µM |  | > 100 |  | > 100 µM |  |  |  | > 100 µM |  | > 100 | > 100 | > 100 µM |  | 
COc1ccc2c(c1)nnn1c3ncccc3c(N=O)c21 | 10.8 µM and 3.87 µM | 50 µM and 15.7 µM | 0.0424 µM and 0.117 µM |  | 1.17 µM and 11.5 µM |  | 1.57 µM and 3.44 µM |  | 8.02 µM and 4.57 µM | 23.2 µM and > 100 µM | 1.68 µM and 2.94 µM | 11.8 µM and 19.6 µM | 1.4 µM and 2.06 µM | 8.1 µM and 9.82 µM |  |  |  | 15.3 µM and 32 µM | 0.0094 µM and 0.0123 µM | 4.69 µM and 6.95 µM
COc1ccc(-c2nc(/C=N/Nc3cc(C)nc4ccc(Cl)cc34)c(C)o2)cc1 | 1.73 µM | 3.32 µM | 1.5 µM | 2.98 µM | 1.84 µM | 3.79 µM | 1.74 µM | 3.36 | 1.68 µM | 3.07 µM | 1.65 µM | 3.06 µM | 1.8 µM | 3.42 µM | 1.44 | 2.93 |  | 3.31 µM |  | 1.82 µM
CC(=O)C(=Cc1ccc(C=C(C(C)=O)C(C)=O)cc1)C(C)=O |  | 25.2 µM |  | 5.87 µM |  | 22.6 µM |  | 3.59 |  | 5.88 µM |  | 17 µM |  | 3.07 µM |  |  | 3.6 | 7.97 µM |  | 
COC1/C=C/C(C)C(C(C)C(OC)C(C)CCC(=O)C(C)C(C/C=C/N(C)C=O)OC)OC(=O)/C=C/C=C(\C)CC(OC)CC2=CC(=O)O[C@H](C2)C(C)C(OC)CC(OC)/C=C/C(C)C(OC)C1 (some centres undefined) | 0.0185 µM | 0.271 µM and 0.284 µM | 0.0161 µM | 0.0489 µM and 0.0313 µM | 0.0297 µM | 0.071 µM and 0.0601 µM | 0.0215 µM | 0.0686 | 0.119 µM | 0.714 µM | 0.0382 µM | 0.229 µM and 0.0297 µM | 0.143 µM | 47.5 µM |  |  | 0.11 | 0.159 µM and 0.0165 µM | 0.164 µM | 0.0277 µM
c1csc(-c2cn3nc(-c4c[nH]c5ccccc45)sc3n2)c1 | 1.72 µM | > 100 µM | 5.46 µM | > 100 µM | 2.65 µM | > 100 µM | 0.75 µM | 15.8 | 4.27 µM | 76.4 µM | 2.8 µM | 82.7 µM | 1.15 µM | > 100 µM | 0.445 | 8.09 |  | 6.44 µM |  | 1.74 µM
O=C(Cn1c(=O)c(-c2ccccc2)nc2ccccc21)Nc1ccc(F)cc1 | 94.8 µM | > 100 µM | 22.5 µM | 86.2 µM | 29.9 µM | 88.8 µM | > 100 µM | > 100 | > 100 µM | > 100 µM | 64.8 µM | > 100 µM | 77.5 µM | > 100 µM | 38.8 | > 100 |  | > 100 µM |  | > 100 µM
C[C@]12CCc3sc(NCCc4ccccc4)nc3C1=CC[C@@H]1[C@@H]2CC[C@]2(C)C(=O)CC[C@@H]12 | 7 µM | > 100 µM | 2.75 µM | 9.1 µM | 2.85 µM | > 100 µM | 3.63 µM | > 100 | 4.44 µM | 65.9 µM | > 100 µM | > 100 µM | 2.89 µM | > 100 µM |  |  | > 100 | > 100 µM | 2.58 µM | 18.9 µM
COc1cccc2c1ccc1nc3cccc(C(=O)N[C@H](C)CN(C)C)c3nc12 | 0.0402 µM | 1.99 µM |  |  | 0.166 µM | 3.42 µM | 0.138 µM | 0.339 | 0.154 µM | 11.3 µM | 0.144 µM | 1.89 µM | 0.0879 µM | 11.7 µM | 0.205 | 1.16 | 4.85 | 2.58 µM | 0.0454 µM | 0.0586 µM
CCCc1cc(=O)[nH]c(-n2nc(C)cc2C)n1 | 2.71 µM | > 100 µM |  |  | 15 µM | > 100 µM | 2.91 µM | > 100 | 28 µM | > 100 µM | 9.34 µM | > 100 µM | 4.75 µM | > 100 µM | 40.3 | > 100 | > 100 | 8.81 µM | 3.44 µM | 1.07 µM
